# Measurements as given in patent US20220324815A1, “2-PHENOXY-PYRIMIDINE DERIVATIVES AS HERBICIDAL COMPOUNDS” (SYNGENTA CROP PROTECTION AG, priority 2019, published 2022).
# Key:
# Format in all cases: in vivo
# Details in all cases: 250 g/ha unless otherwise stated, evaluated after 13 days, five-point scale
# [1] = test system: Ipomoea hederacea (IPOHE); assay: Test 1 glasshouse herbicide test, post-emergence application (Table B1)
# In short: (§1)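 Pots sown in standard soil; sprayed 1 day (pre-emergence) or 8 days (post-emergence) after sowing at 250 g/ha unless stated, in acetone/water (50:50) with 0.5% Tween 20. Glasshouse 24/16 °C, 14 h light, 65% humidity; damage scored at 13 days on a 1–5 scale (5=81–100%, 1=0–20%).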
# [2] = test system: Echinochloa crus-galli (ECHCG); assay: as above
# In short: as §1
# [3] = test system: Amaranthus retoflexus (AMARE); assay: as above
# In short: as §1
# Solanum nigrum (SOLNI) [4] = assay: as above
# In short: as §1
# Lolium perenne (LOLPE) [5] = assay: as above
# In short: as §1
# Setaria faberi (SETFA) [6] = assay: as above
# In short: as §1
# [7] = test system: Ipomoea hederacea (IPOHE); assay: Test 1 glasshouse herbicide test, pre-emergence application (Table B2)
# In short: as §1
# [8] = test system: Echinochloa crus-galli (ECHCG); assay: as above
# In short: as §1
# [9] = test system: Amaranthus retoflexus (AMARE); assay: as above
# In short: as §1
# Solanum nigrum (SOLNI) [10] = assay: as above
# In short: as §1
# Lolium perenne (LOLPE) [11] = assay: as above
# In short: as §1
# Setaria faberi (SETFA) [12] = assay: as above
# In short: as §1
Structure (SMILES),"% phytotoxicity IPOHE, post-emergence application [1]","% phytotoxicity ECHCG, post-emergence application [2]","% phytotoxicity AMARE, post-emergence application [3]","% phytotoxicity SOLNI, post-emergence application (Solanum nigrum (SOLNI) [4])","% phytotoxicity LOLPE, post-emergence application (Lolium perenne (LOLPE) [5])","% phytotoxicity SETFA, post-emergence application (Setaria faberi (SETFA) [6])","% phytotoxicity IPOHE, pre-emergence application [7]","% phytotoxicity ECHCG, pre-emergence application [8]","% phytotoxicity AMARE, pre-emergence application [9]","% phytotoxicity SOLNI, pre-emergence application (Solanum nigrum (SOLNI) [10])","% phytotoxicity LOLPE, pre-emergence application (Lolium perenne (LOLPE) [11])","% phytotoxicity SETFA, pre-emergence application (Setaria faberi (SETFA) [12])"
[O-][S+](CCC(F)(F)F)c1ccccc1Oc1ncc(Cl)cn1 (stereo not drawn) [Compound A2],4 (4=61 to 80%),4 (4=61 to 80%),5 (5=81 to 100%),5 (5=81 to 100%),4 (4=61 to 80%),4 (4=61 to 80%),2 (2=21 to 40%),5 (5=81 to 100%),5 (5=81 to 100%),5 (5=81 to 100%),3 (3=41 to 60%),5 (5=81 to 100%)
O=S(=O)(CCC(F)(F)F)c1ccccc1Oc1ncc(Cl)cn1 [Compound A3],3 (3=41 to 60%),4 (4=61 to 80%),5 (5=81 to 100%),5 (5=81 to 100%),4 (4=61 to 80%),4 (4=61 to 80%),3 (3=41 to 60%),5 (5=81 to 100%),5 (5=81 to 100%),4 (4=61 to 80%),4 (4=61 to 80%),5 (5=81 to 100%)
"FC(F)(F)CCCSc1ccccc1Oc1ncc(Cl)cn1 [Compound A4, 5-chloro-2-[2-(4,4,4-trifluorobutylsulfanyl)phenoxy] pyrimidine]",4 (4=61 to 80%),4 (4=61 to 80%),5 (5=81 to 100%),5 (5=81 to 100%),4 (4=61 to 80%),5 (5=81 to 100%),3 (3=41 to 60%),5 (5=81 to 100%),5 (5=81 to 100%),4 (4=61 to 80%),4 (4=61 to 80%),5 (5=81 to 100%)
[O-][S+](CCCC(F)(F)F)c1ccccc1Oc1ncc(Cl)cn1 (stereo not drawn) [Compound A5],4 (4=61 to 80%),5 (5=81 to 100%),5 (5=81 to 100%),5 (5=81 to 100%),5 (5=81 to 100%),5 (5=81 to 100%),5 (5=81 to 100%),5 (5=81 to 100%),5 (5=81 to 100%),5 (5=81 to 100%),5 (5=81 to 100%),5 (5=81 to 100%)
O=S(=O)(CCCC(F)(F)F)c1ccccc1Oc1ncc(Cl)cn1 [Compound A6],3 (3=41 to 60%),3 (3=41 to 60%),5 (5=81 to 100%),5 (5=81 to 100%),2 (2=21 to 40%),4 (4=61 to 80%),2 (2=21 to 40%),4 (4=61 to 80%),5 (5=81 to 100%),3 (3=41 to 60%),2 (2=21 to 40%),5 (5=81 to 100%)
Fc1cccc(Oc2ncc(Cl)cn2)c1SCCC(F)(F)F [Compound A7],2 (2=21 to 40%),4 (4=61 to 80%),5 (5=81 to 100%),5 (5=81 to 100%),2 (2=21 to 40%),5 (5=81 to 100%),2 (2=21 to 40%),5 (5=81 to 100%),5 (5=81 to 100%),4 (4=61 to 80%),4 (4=61 to 80%),5 (5=81 to 100%)
[O-][S+](CCC(F)(F)F)c1c(F)cccc1Oc1ncc(Cl)cn1 (stereo not drawn) [Compound A8],2 (2=21 to 40%),1 (1=0 to 20%),5 (5=81 to 100%),4 (4=61 to 80%),1 (1=0 to 20%),3 (3=41 to 60%),2 (2=21 to 40%),2 (2=21 to 40%),5 (5=81 to 100%),4 (4=61 to 80%),2 (2=21 to 40%),4 (4=61 to 80%)
O=S(=O)(CCC(F)(F)F)c1c(F)cccc1Oc1ncc(Cl)cn1 [Compound A9],3 (3=41 to 60%),3 (3=41 to 60%),5 (5=81 to 100%),5 (5=81 to 100%),3 (3=41 to 60%),4 (4=61 to 80%),4 (4=61 to 80%),4 (4=61 to 80%),5 (5=81 to 100%),5 (5=81 to 100%),4 (4=61 to 80%),5 (5=81 to 100%)
"FC(F)(F)CCSc1c(Cl)cccc1Oc1ncc(Cl)cn1 [Compound A10, 5-chloro-2-[3-chloro-2-(3,3,3-trifluoropropylsulfanyl)phenoxy]pyrimidine]",4 (4=61 to 80%),5 (5=81 to 100%),5 (5=81 to 100%),5 (5=81 to 100%),5 (5=81 to 100%),5 (5=81 to 100%),3 (3=41 to 60%),5 (5=81 to 100%),5 (5=81 to 100%),4 (4=61 to 80%),4 (4=61 to 80%),5 (5=81 to 100%)
